ChEMBL document CHEMBL1201862, “PubChem BioAssay data set” (2004)
“And” between values parts separate entries of the source, which are not always exact repeats. Equal entries are not always repeated.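 Interpolation was linear, between the two tested concentrations surrounding the appropriate level; five concentrations were tested over 48 hours in 96-well plates. The concentration for 50% growth inhibition is given as GI50.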 The source made the active and inactive calls. Rule as the data show it: active = GI50 up to about 1.1 µM and inactive = higher.

Tests used:
Assay in all cases: NCI anticancer screen, dose series, 48 h
HT-29 = test system: HT-29
CCRF-CEM = test system: CCRF-CEM
SF-268 = test system: SF-268
SW-620 = test system: SW-620
Hs-578T = test system: Hs-578T
MCF7 = test system: MCF7
UO-31 = test system: UO-31
UACC-62 = test system: UACC-62
EKVX = test system: EKVX
SN12C = test system: SN12C
786-0 = test system: 786-0
SK-MEL-2 = test system: SK-MEL-2
Malme-3M = test system: Malme-3M
PC-3 = test system: PC-3
K562 = test system: K562
NCI-H460 = test system: NCI-H460
HCC 2998 = test system: HCC 2998
ACHN = test system: ACHN
LOX IMVI = test system: LOX IMVI
IGROV-1 = test system: IGROV-1
MOLT-4 = test system: MOLT-4
NCI-H226 = test system: NCI-H226
OVCAR-8 = test system: OVCAR-8
MDA-MB-435 = test system: MDA-MB-435
RPMI-8226 = test system: RPMI-8226
HCT-116 = test system: HCT-116
SK-MEL-28 = test system: SK-MEL-28
NCI/ADR-RES = test system: NCI/ADR-RES
SF-295 = test system: SF-295
SF-539 = test system: SF-539
KM12 = test system: KM12
A549 = test system: A549
OVCAR-3 = test system: OVCAR-3
SNB-19 = test system: SNB-19
SK-MEL-5 = test system: SK-MEL-5
M14 = test system: M14
MDA-MB-231 = test system: MDA-MB-231
UACC-257 = test system: UACC-257
SR = test system: SR
A498 = test system: A498
HOP-92 = test system: HOP-92
COLO 205 = test system: COLO 205
DU-145 = test system: DU-145
SNB-75 = test system: SNB-75
HOP-62 = test system: HOP-62
SK-OV-3 = test system: SK-OV-3
CAKI-1 = test system: CAKI-1
NCI-H522 = test system: NCI-H522
OVCAR-5 = test system: OVCAR-5
OVCAR-4 = test system: OVCAR-4
U-251 = test system: U-251
T47D = test system: T47D
NCI-H23 = test system: NCI-H23
HCT-15 = test system: HCT-15
RXF 393 = test system: RXF 393
TK-10 = test system: TK-10
HL-60 = test system: HL-60
MDA-N = test system: MDA-N

In the case of `CCCCCCNCCc1c[nH]cn1`, the GI50 (HT-29) is reported as > 100 µM (inactive), the GI50 (CCRF-CEM) is reported as > 100 µM (inactive) and the GI50 (SF-268) is reported as > 100 µM (inactive). For the same compound, the GI50 (SW-620) was > 100 µM (inactive), the GI50 (Hs-578T) was > 100 µM (inactive) and the GI50 (MCF7) was > 100 µM (inactive). The GI50 (UO-31) was > 100 µM (inactive), the GI50 (UACC-62) was > 100 µM (inactive) and the GI50 (EKVX) was > 100 µM (inactive). The GI50 (SN12C) was > 100 µM (inactive), the GI50 (786-0) was > 100 µM (inactive) and the GI50 (SK-MEL-2) was > 100 µM (inactive). For the same compound, the GI50 (Malme-3M) was > 100 µM (inactive), the GI50 (PC-3) was > 100 µM (inactive) and the GI50 (K562) was > 100 µM (inactive). For the same compound, the GI50 (NCI-H460) was > 100 µM (inactive), the GI50 (HCC 2998) was > 100 µM (inactive) and the GI50 (ACHN) was > 100 µM (inactive). The GI50 (LOX IMVI) was > 100 µM (inactive), the GI50 (IGROV-1) was > 100 µM (inactive) and the GI50 (MOLT-4) was > 100 µM (inactive). For the same compound, the GI50 (NCI-H226) was > 100 µM (inactive), the GI50 (OVCAR-8) was > 100 µM (inactive) and the GI50 (MDA-MB-435) was > 100 µM (inactive). For the same compound, the GI50 (RPMI-8226) was > 100 µM (inactive), the GI50 (HCT-116) was > 100 µM (inactive) and the GI50 (SK-MEL-28) was > 100 µM (inactive). The GI50 (NCI/ADR-RES) was > 100 µM (inactive), the GI50 (SF-295) was > 100 µM (inactive) and the GI50 (SF-539) was > 100 µM (inactive). The GI50 (KM12) was > 100 µM (inactive), the GI50 (A549) was > 100 µM (inactive) and the GI50 (OVCAR-3) was > 100 µM (inactive). For the same compound, the GI50 (SNB-19) was > 100 µM (inactive), the GI50 (SK-MEL-5) was > 100 µM (inactive) and the GI50 (M14) was > 100 µM (inactive). The GI50 (MDA-MB-231) was > 100 µM (inactive), the GI50 (UACC-257) was > 100 µM (inactive) and the GI50 (SR) was > 100 µM (inactive). The GI50 (A498) was > 100 µM (inactive), the GI50 (HOP-92) was > 100 µM (inactive) and the GI50 (COLO 205) was > 100 µM (inactive). For the same compound, the GI50 (DU-145) was > 100 µM (inactive), the GI50 (SNB-75) was > 100 µM (inactive) and the GI50 (HOP-62) was > 100 µM (inactive). The GI50 (SK-OV-3) was > 100 µM (inactive), the GI50 (CAKI-1) was > 100 µM (inactive) and the GI50 (NCI-H522) was > 100 µM (inactive). For the same compound, the GI50 (OVCAR-5) was > 100 µM (inactive), the GI50 (OVCAR-4) was > 100 µM (inactive) and the GI50 (U-251) was > 100 µM (inactive). The GI50 (T47D) was > 100 µM (inactive), the GI50 (NCI-H23) was > 100 µM (inactive) and the GI50 (HCT-15) was over 100 µM. For the same compound, the GI50 (RXF 393) was > 100 µM (inactive).
With `Cc1nc(O)c2ncn(CCO)c2n1` the GI50 (HT-29) was > 100 µM (inactive), the GI50 (CCRF-CEM) was > 100 µM (inactive) and the GI50 (SF-268) was > 100 µM (inactive). The GI50 (SW-620) was > 100 µM (inactive), the GI50 (Hs-578T) was > 100 µM (inactive) and the GI50 (MCF7) was > 100 µM (inactive). For the same compound, the GI50 (UACC-62) was > 100 µM (inactive), the GI50 (EKVX) was > 100 µM (inactive) and the GI50 (SN12C) was > 100 µM (inactive). For the same compound, the GI50 (786-0) was > 100 µM (inactive), the GI50 (Malme-3M) was > 100 µM (inactive) and the GI50 (PC-3) was > 100 µM (inactive). The GI50 (K562) was > 100 µM (inactive), the GI50 (NCI-H460) was > 100 µM (inactive) and the GI50 (HCC 2998) was > 100 µM (inactive). For the same compound, the GI50 (ACHN) was > 100 µM (inactive), the GI50 (LOX IMVI) was > 100 µM (inactive) and the GI50 (IGROV-1) was > 100 µM (inactive). For the same compound, the GI50 (NCI-H226) was > 100 µM (inactive), the GI50 (OVCAR-8) was > 100 µM (inactive) and the GI50 (MDA-MB-435) was > 100 µM (inactive). The GI50 (TK-10) was > 100 µM (inactive), the GI50 (HCT-116) was > 100 µM (inactive) and the GI50 (SK-MEL-28) was > 100 µM (inactive). For the same compound, the GI50 (NCI/ADR-RES) was > 100 µM (inactive), the GI50 (SF-295) was > 100 µM (inactive) and the GI50 (SF-539) was > 100 µM (inactive). For the same compound, the GI50 (KM12) was > 100 µM (inactive), the GI50 (A549) was > 100 µM (inactive) and the GI50 (OVCAR-3) was > 100 µM (inactive). For the same compound, the GI50 (SNB-19) was > 100 µM (inactive), the GI50 (SK-MEL-5) was > 100 µM (inactive) and the GI50 (M14) was > 100 µM (inactive). The GI50 (MDA-MB-231) was > 100 µM (inactive), the GI50 (UACC-257) was > 100 µM (inactive) and the GI50 (SR) was > 100 µM (inactive). For the same compound, the GI50 (HL-60) was > 100 µM (inactive), the GI50 (A498) was > 100 µM (inactive) and the GI50 (COLO 205) was > 100 µM (inactive). The GI50 (DU-145) was > 100 µM (inactive), the GI50 (SNB-75) was > 100 µM (inactive) and the GI50 (HOP-62) was > 100 µM (inactive). For the same compound, the GI50 (SK-OV-3) was > 100 µM (inactive), the GI50 (MDA-N) was > 100 µM (inactive) and the GI50 (CAKI-1) was > 100 µM (inactive). For the same compound, the GI50 (NCI-H522) was > 100 µM (inactive), the GI50 (OVCAR-5) was > 100 µM (inactive) and the GI50 (OVCAR-4) was > 100 µM (inactive). For the same compound, the GI50 (U-251) was > 100 µM (inactive), the GI50 (T47D) was > 100 µM (inactive) and the GI50 (NCI-H23) was > 100 µM (inactive). The GI50 (HCT-15) was over 100 µM and the GI50 (RXF 393) was > 100 µM (inactive).
`c1ccc2c3nnc(c2c1)SCCSCCSc1nnc(c2ccccc12)SCCSCCS3` was tested, and the GI50 (HT-29) was > 100 µM (inactive), the GI50 (SF-268) was > 100 µM (inactive) and the GI50 (SW-620) was > 100 µM (inactive). For the same compound, the GI50 (Hs-578T) was > 100 µM (inactive), the GI50 (UACC-62) was > 100 µM (inactive) and the GI50 (EKVX) was > 100 µM (inactive). The GI50 (SN12C) was > 100 µM (inactive), the GI50 (SK-MEL-2) was > 100 µM (inactive) and the GI50 (Malme-3M) was > 100 µM (inactive). For the same compound, the GI50 (PC-3) was > 100 µM (inactive), the GI50 (NCI-H460) was > 100 µM (inactive) and the GI50 (ACHN) was > 100 µM (inactive). The GI50 (LOX IMVI) was > 100 µM (inactive), the GI50 (IGROV-1) was > 100 µM (inactive) and the GI50 (MOLT-4) was > 100 µM (inactive). The GI50 (OVCAR-8) was > 100 µM (inactive), the GI50 (NCI/ADR-RES) was > 100 µM (inactive) and the GI50 (SF-295) was > 100 µM (inactive). For the same compound, the GI50 (A549) was > 100 µM (inactive), the GI50 (OVCAR-3) was > 100 µM (inactive) and the GI50 (SK-MEL-5) was > 100 µM (inactive). For the same compound, the GI50 (M14) was > 100 µM (inactive), the GI50 (MDA-MB-231) was > 100 µM (inactive) and the GI50 (UACC-257) was > 100 µM (inactive). The GI50 (SR) was > 100 µM (inactive), the GI50 (HOP-92) was > 100 µM (inactive) and the GI50 (COLO 205) was > 100 µM (inactive). The GI50 (SNB-75) was > 100 µM (inactive), the GI50 (HOP-62) was > 100 µM (inactive) and the GI50 (SK-OV-3) was > 100 µM (inactive). For the same compound, the GI50 (NCI-H522) was > 100 µM (inactive), the GI50 (OVCAR-4) was > 100 µM (inactive) and the GI50 (T47D) was > 100 µM (inactive). It also gave a GI50 (HCT-15) of over 100 µM.
In the case of `CC(=O)OCC1OC(n2c(-c3ccccc3)c(/N=N/c3ccc(Cl)cc3)c(C)c(C#N)c2=S)C(OC(C)=O)C(OC(C)=O)C1OC(C)=O` (stereo not drawn), the GI50 (SW-620) is reported as 7.01 µM (inactive) and 12.4 µM (inactive), the GI50 (Hs-578T) is reported as 15.8 µM (inactive) and 15.3 µM (inactive) and the GI50 (786-0) is reported as 19.5 µM (inactive) and 23.9 µM (inactive). For the same compound, the GI50 (PC-3) was 9.4 µM (inactive) and 5.09 µM (inactive), the GI50 (K562) was 6.76 µM (inactive) and 11.8 µM (inactive) and the GI50 (MOLT-4) was 4.91 µM (inactive) and 3.56 µM (inactive). For the same compound, the GI50 (TK-10) was 33.8 µM (inactive) and 24.6 µM (inactive), the GI50 (SF-539) was 14 µM (inactive) and 19.6 µM (inactive) and the GI50 (HOP-62) was 15.6 µM (inactive) and 27.8 µM (inactive). The GI50 (CAKI-1) was 24.3 µM (inactive) and 14.3 µM (inactive) and the GI50 (RXF 393) was 17.4 µM (inactive) and 13.2 µM (inactive).
